{"source": "ChEMBL document CHEMBL1131791", "about": "(Bioorg Med Chem Lett, 1999)", "key": {"D(2) dopamine receptor [1]": {"biological_target": "T1, D(2) dopamine receptor (Homo sapiens, UniProt P14416)", "T1 sequence (P14416 whole entry)": "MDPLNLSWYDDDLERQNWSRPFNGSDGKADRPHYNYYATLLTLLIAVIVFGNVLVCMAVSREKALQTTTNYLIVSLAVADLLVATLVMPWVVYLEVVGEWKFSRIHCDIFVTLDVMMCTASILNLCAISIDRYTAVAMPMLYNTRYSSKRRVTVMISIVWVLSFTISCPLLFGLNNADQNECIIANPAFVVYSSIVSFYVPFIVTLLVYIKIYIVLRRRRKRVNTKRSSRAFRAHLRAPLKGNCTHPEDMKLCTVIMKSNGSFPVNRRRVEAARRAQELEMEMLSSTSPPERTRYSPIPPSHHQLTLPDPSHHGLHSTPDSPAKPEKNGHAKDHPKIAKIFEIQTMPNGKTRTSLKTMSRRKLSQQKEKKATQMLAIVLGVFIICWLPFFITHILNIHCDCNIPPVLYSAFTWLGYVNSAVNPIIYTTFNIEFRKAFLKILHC", "assay": "Ability to displace [3H]spiperone from the cloned human Dopamine receptor D2L stably expressed in Chinese hamster ovary (CHO) cells was determined.", "assay_type": "cell-based"}, "D(1A) dopamine receptor": {"biological_target": "D(1A) dopamine receptor (Bos taurus, UniProt Q95136)", "sequence (Q95136 whole entry)": "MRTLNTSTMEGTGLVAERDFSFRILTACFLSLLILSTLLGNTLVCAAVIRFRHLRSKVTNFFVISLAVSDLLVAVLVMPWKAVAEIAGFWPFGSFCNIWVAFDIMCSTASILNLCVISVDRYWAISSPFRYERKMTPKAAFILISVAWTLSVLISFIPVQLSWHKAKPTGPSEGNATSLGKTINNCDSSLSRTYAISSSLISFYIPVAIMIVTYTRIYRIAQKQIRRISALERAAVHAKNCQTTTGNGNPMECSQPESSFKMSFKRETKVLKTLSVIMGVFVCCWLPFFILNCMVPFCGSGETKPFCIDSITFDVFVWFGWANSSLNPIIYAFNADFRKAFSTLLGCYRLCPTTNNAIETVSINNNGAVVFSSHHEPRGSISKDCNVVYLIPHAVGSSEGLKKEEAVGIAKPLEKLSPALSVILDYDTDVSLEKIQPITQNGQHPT", "assay": "Ability to displace D1 selective radioligand [3H]-SCH- 23390 in bovine striatal membrane preparations was determined", "assay_type": "cell membranes, Striatum"}, "D(3) dopamine receptor": {"biological_target": "D(3) dopamine receptor (Homo sapiens, UniProt P35462)", "sequence (P35462 whole entry)": "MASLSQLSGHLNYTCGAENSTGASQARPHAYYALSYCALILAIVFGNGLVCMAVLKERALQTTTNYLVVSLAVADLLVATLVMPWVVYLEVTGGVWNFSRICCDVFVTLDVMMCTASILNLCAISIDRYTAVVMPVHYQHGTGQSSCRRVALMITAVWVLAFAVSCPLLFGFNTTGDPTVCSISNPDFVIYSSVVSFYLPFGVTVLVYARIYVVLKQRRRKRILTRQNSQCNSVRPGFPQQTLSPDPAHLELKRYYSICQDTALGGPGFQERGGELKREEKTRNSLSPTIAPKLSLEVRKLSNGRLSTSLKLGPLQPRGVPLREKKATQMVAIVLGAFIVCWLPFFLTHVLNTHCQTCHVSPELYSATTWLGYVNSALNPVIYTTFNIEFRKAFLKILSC", "assay": "Ability to displace [3H]spiperone from the cloned human D3 dopamine receptor stably expressed in Chinese hamster ovary (CHO) cells was determined.", "assay_type": "cell-based"}, "D(2) dopamine receptor [2]": {"biological_target": "T1, D(2) dopamine receptor", "assay": "Ability to displace [3H]spiperone from the cloned human Dopamine receptor D2S stably expressed in Chinese hamster ovary (CHO) cells was determined.", "assay_type": "cell-based"}, "D(4) dopamine receptor": {"biological_target": "T2, D(4) dopamine receptor (Homo sapiens, UniProt P21917)", "T2 sequence (P21917 whole entry)": "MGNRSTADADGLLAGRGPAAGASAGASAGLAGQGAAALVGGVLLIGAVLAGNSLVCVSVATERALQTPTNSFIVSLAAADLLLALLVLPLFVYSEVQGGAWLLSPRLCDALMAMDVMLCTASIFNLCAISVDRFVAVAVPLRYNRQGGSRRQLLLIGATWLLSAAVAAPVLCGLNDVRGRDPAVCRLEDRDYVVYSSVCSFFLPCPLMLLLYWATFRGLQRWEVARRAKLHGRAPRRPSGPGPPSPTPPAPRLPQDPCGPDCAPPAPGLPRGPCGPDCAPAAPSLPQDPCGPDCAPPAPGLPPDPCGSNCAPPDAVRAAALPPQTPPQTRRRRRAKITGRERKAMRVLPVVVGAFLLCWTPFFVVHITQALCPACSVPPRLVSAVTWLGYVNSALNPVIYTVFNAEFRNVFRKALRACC", "assay": "Binding affinity of compound towards human cloned Dopamine receptor D4.4 expressed in CHO cells using [3H]spiperone as radioligand", "assay_type": "cell-based"}}, "data": [{"compound": "N#CC(C#N)=Cc1[nH]ccc1CN1CCN(c2ccccc2)CC1", "values": [{"measurement": "Ki", "setting": "D(2) dopamine receptor [1]", "result": 4, "unit": "µM"}, {"measurement": "Ki", "setting": "D(1A) dopamine receptor", "result": 22, "unit": "µM"}, {"measurement": "Ki", "setting": "D(3) dopamine receptor", "result": 6.95, "unit": "µM"}, {"measurement": "Ki", "setting": "D(2) dopamine receptor [2]", "result": 12.8, "unit": "µM"}, {"measurement": "Ki", "setting": "D(4) dopamine receptor", "result": 0.16, "unit": "µM"}]}, {"compound": "N#CC(C#N)=Cc1cc(CN2CCN(c3ccc(Cl)cc3)CC2)c[nH]1", "values": [{"measurement": "Ki", "setting": "D(2) dopamine receptor [1]", "result": 7.35, "unit": "µM"}, {"measurement": "Ki", "setting": "D(1A) dopamine receptor", "result": 5.3, "unit": "µM"}, {"measurement": "Ki", "setting": "D(3) dopamine receptor", "result": 6.95, "unit": "µM"}, {"measurement": "Ki", "setting": "D(2) dopamine receptor [2]", "result": 10.3, "unit": "µM"}, {"measurement": "Ki", "setting": "D(4) dopamine receptor", "result": 0.0057, "unit": "µM"}]}, {"compound": "N#CC(C#N)=Cc1ccc(CN2CCN(c3ccccc3)CC2)[nH]1", "values": [{"measurement": "Ki", "setting": "D(2) dopamine receptor [1]", "result": "> 100", "unit": "µM"}, {"measurement": "Ki", "setting": "D(1A) dopamine receptor", "result": 58, "unit": "µM"}, {"measurement": "Ki", "setting": "D(3) dopamine receptor", "result": 5.25, "unit": "µM"}, {"measurement": "Ki", "setting": "D(2) dopamine receptor [2]", "result": "> 100", "unit": "µM"}, {"measurement": "Ki", "setting": "D(4) dopamine receptor", "result": 0.0093, "unit": "µM"}]}, {"compound": "N#CC(C#N)=Cc1cc(CN2CCN(c3ccccc3)CC2)c[nH]1", "values": [{"measurement": "Ki", "setting": "D(2) dopamine receptor [1]", "result": 1.85, "unit": "µM"}, {"measurement": "Ki", "setting": "D(1A) dopamine receptor", "result": 7.2, "unit": "µM"}, {"measurement": "Ki", "setting": "D(3) dopamine receptor", "result": 2.35, "unit": "µM"}, {"measurement": "Ki", "setting": "D(2) dopamine receptor [2]", "result": 0.975, "unit": "µM"}, {"measurement": "Ki", "setting": "D(4) dopamine receptor", "result": 0.0039, "unit": "µM"}]}, {"compound": "N#CC(C#N)=Cc1[nH]ccc1CN1CCN(c2ccc(Cl)cc2)CC1", "values": [{"measurement": "Ki", "setting": "D(2) dopamine receptor [1]", "result": 8.95, "unit": "µM"}, {"measurement": "Ki", "setting": "D(1A) dopamine receptor", "result": 13.5, "unit": "µM"}, {"measurement": "Ki", "setting": "D(3) dopamine receptor", "result": 7.6, "unit": "µM"}, {"measurement": "Ki", "setting": "D(2) dopamine receptor [2]", "result": 15, "unit": "µM"}, {"measurement": "Ki", "setting": "D(4) dopamine receptor", "result": 0.125, "unit": "µM"}]}, {"compound": "N#CC(C#N)=Cc1ccc(CN2CCN(c3ccc(Cl)cc3)CC2)[nH]1", "values": [{"measurement": "Ki", "setting": "D(2) dopamine receptor [1]", "result": 48.5, "unit": "µM"}, {"measurement": "Ki", "setting": "D(1A) dopamine receptor", "result": 39.5, "unit": "µM"}, {"measurement": "Ki", "setting": "D(3) dopamine receptor", "result": 31, "unit": "µM"}, {"measurement": "Ki", "setting": "D(2) dopamine receptor [2]", "result": 59, "unit": "µM"}, {"measurement": "Ki", "setting": "D(4) dopamine receptor", "result": 0.011, "unit": "µM"}]}]}
